Source: patent US11578056B2, “Solid forms comprising (S)-2-(2,6-dioxopiperidin-3-yl)-4-((2-fluoro-4-((3-morpholinoazetidin-1-yl)methyl)benzyl)amino)isoindoline-1,3-dione and salts thereof, and compositions comprising and methods of using the same” (Celgene Corporation, priority 2019, dated 2023)

Legend:
[1] = Estimated solubility of free base and salt forms in solvents (aliquot addition, visual); type: physicochemical
Procedure: The experiments were carried out by adding the test solvent in aliquots to weighed portions of solid. Whether dissolution had occurred was judged by visual inspection after addition of each solvent aliquot. Solubility numbers were calculated by dividing the total amount of solvent used to dissolve the sample by the weight of the sample. […] The solubility number is expressed as “greater than or equal to” if dissolution occurred on addition of the first solvent aliquot.

[2] = Solid state stability of free base and salt forms under stress storage conditions; type: physicochemical; on Chemical (%): time not given here; on Chiral (%): time not given here;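 on Physical stability: Physical stability judged by XRPD check of crystalline form at end of study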
Procedure: The solid samples were analyzed for both chemical and chiral stability.

Compound: Cl.O=C1CC[C@H](N2C(=O)c3cccc(NCc4ccc(CN5CC(N6CCOCC6)C5)cc4F)c3C2=O)C(=O)N1 [HCl Salt]
- Solubility ([1]; 2-methyl tetrahydrofuran): <1000 µg/mL
- Solubility ([1]; 2-propanol): <1000 µg/mL
- Solubility ([1]; 95:5 2-PrOH/water): <1000 µg/mL
- Solubility ([1]; 95:5 ACN/water): 3000 µg/mL
- Solubility ([1]; 95:5 THF/water): 1000 µg/mL
- Solubility ([1]; 95:5 acetone/water): <1000 µg/mL
- Solubility ([1]; N-methyl pyrrolidone): 1000 µg/mL
- Solubility ([1]; acetone): <1000 µg/mL
- Solubility ([1]; acetonitrile): <1000 µg/mL
- Solubility ([1]; anisole): <1000 µg/mL
- Solubility ([1]; dichloromethane): <1000 µg/mL
- Solubility ([1]; dimethylacetamide): 1000 µg/mL
- Solubility ([1]; dimethylsulfoxide): 38000 µg/mL
- Solubility ([1]; ethanol): <1000 µg/mL
- Solubility ([1]; ethyl acetate): <1000 µg/mL
- Solubility ([1]; ethyl formate): <1000 µg/mL
- Solubility ([1]; isopropyl acetate): <1000 µg/mL
- Solubility ([1]; methanol): 2000 µg/mL
- Solubility ([1]; methyl ethyl ketone): <1000 µg/mL
- Solubility ([1]; methyl tert-butyl ether): <1000 µg/mL
- Solubility ([1]; nitromethane): <1000 µg/mL
- Solubility ([1]; tetrahydrofuran): <1000 µg/mL
- Solubility ([1]; toluene): <1000 µg/mL
- Solubility ([1]; water): 2000 µg/mL

Compound: O=C1CC[C@H](N2C(=O)c3cccc(NCc4ccc(CN5CC(N6CCOCC6)C5)cc4F)c3C2=O)C(=O)N1 [Free Base]
- Solubility ([1]; 2-methyl tetrahydrofuran): 30000 µg/mL
- Solubility ([1]; 2-propanol): <1000 µg/mL
- Solubility ([1]; 95:5 2-PrOH/water): 2000 µg/mL
- Solubility ([1]; 95:5 ACN/water): 27000 µg/mL
- Solubility ([1]; 95:5 THF/water): 20000 µg/mL
- Solubility ([1]; 95:5 acetone/water): 31000 µg/mL
- Solubility ([1]; N-methyl pyrrolidone): 31000 µg/mL
- Solubility ([1]; acetone): 52000 µg/mL
- Solubility ([1]; acetonitrile): 33000 µg/mL
- Solubility ([1]; anisole): 26000 µg/mL
- Solubility ([1]; dichloromethane): 59000 µg/mL
- Solubility ([1]; dimethylacetamide): 34000 µg/mL
- Solubility ([1]; ethanol): 1000 µg/mL
- Solubility ([1]; ethyl acetate): 33000 µg/mL
- Solubility ([1]; ethyl formate): 30000 µg/mL
- Solubility ([1]; isopropyl acetate): 6000 µg/mL
- Solubility ([1]; methanol): 2000 µg/mL
- Solubility ([1]; methyl ethyl ketone): 29000 µg/mL
- Solubility ([1]; methyl tert-butyl ether): <1000 µg/mL
- Solubility ([1]; nitromethane): 34000 µg/mL
- Solubility ([1]; tetrahydrofuran): 28000 µg/mL
- Solubility ([1]; toluene): 3000 µg/mL
- Solubility ([1]; water): <1000 µg/mL

Compound: Fumarate
- Chemical (%) ([2]; 40° C.): 98.64%
- Chiral (%) ([2]; 40° C.): 95.39%
- Physical stability ([2]; 40° C.): Stable
- Chemical (%) ([2]; 40° C./80% RH): 98.69%
- Chiral (%) ([2]; 40° C./80% RH): 94.55%
- Physical stability ([2]; 40° C./80% RH): Stable
- Chemical (%) ([2]; 60° C.): 97.43%
- Chiral (%) ([2]; 60° C.): 95.54%
- Physical stability ([2]; 60° C.): Stable
- Chemical (%) ([2]; 60° C./75% RH): 98.19%
- Chiral (%) ([2]; 60° C./75% RH): 93.14%
- Physical stability ([2]; 60° C./75% RH): Stable
- Chemical (%) ([2]; 70° C.): 95.94%
- Chiral (%) ([2]; 70° C.): 95.11%
- Physical stability ([2]; 70° C.): Stable
- Chemical (%) ([2]; 70° C./80% RH): 93.79%
- Chiral (%) ([2]; 70° C./80% RH): 91.52%
- Physical stability ([2]; 70° C./80% RH): Stable
- Chemical (%) ([2]; Ambient): 98.77%
- Chiral (%) ([2]; Ambient): 95.82%
- Solubility ([1]; 2-methyl tetrahydrofuran): <1000 µg/mL
- Solubility ([1]; 2-propanol): <1000 µg/mL
- Solubility ([1]; 95:5 2-PrOH/water): 1000 µg/mL
- Solubility ([1]; 95:5 ACN/water): 2000 µg/mL
- Solubility ([1]; 95:5 THF/water): 8000 µg/mL
- Solubility ([1]; 95:5 acetone/water): 2000 µg/mL
- Solubility ([1]; N-methyl pyrrolidone): 17000 µg/mL
- Solubility ([1]; acetone): <1000 µg/mL
- Solubility ([1]; acetonitrile): <1000 µg/mL
- Solubility ([1]; anisole): <1000 µg/mL
- Solubility ([1]; dichloromethane): <1000 µg/mL
- Solubility ([1]; dimethylacetamide): 23000 µg/mL
- Solubility ([1]; dimethylsulfoxide): 36000 µg/mL
- Solubility ([1]; ethanol): <1000 µg/mL
- Solubility ([1]; ethyl acetate): <1000 µg/mL
- Solubility ([1]; ethyl formate): <1000 µg/mL
- Solubility ([1]; isopropyl acetate): <1000 µg/mL
- Solubility ([1]; methanol): 3000 µg/mL
- Solubility ([1]; methyl ethyl ketone): <1000 µg/mL
- Solubility ([1]; methyl tert-butyl ether): <1000 µg/mL
- Solubility ([1]; nitromethane): <1000 µg/mL
- Solubility ([1]; tetrahydrofuran): 1000 µg/mL
- Solubility ([1]; toluene): <1000 µg/mL
- Solubility ([1]; water): 2000 µg/mL

Compound: Cl.O=C1CC[C@H](N2C(=O)c3cccc(NCc4ccc(CN5CC(N6CCOCC6)C5)cc4F)c3C2=O)C(=O)N1 [HC1 salt]
- Chemical (%) ([2]; 40° C.): 99.13%
- Chiral (%) ([2]; 40° C.): 99.29%
- Physical stability ([2]; 40° C.): Stable
- Chemical (%) ([2]; 40° C./80% RH): 99.56%
- Chiral (%) ([2]; 40° C./80% RH): 99.22%
- Physical stability ([2]; 40° C./80% RH): Stable
- Chemical (%) ([2]; 60° C.): 99.35%
- Chiral (%) ([2]; 60° C.): 99.02%
- Physical stability ([2]; 60° C.): Stable
- Chemical (%) ([2]; 60° C./75% RH): 99.56%
- Chiral (%) ([2]; 60° C./75% RH): 98.70%
- Physical stability ([2]; 60° C./75% RH): Stable
- Chemical (%) ([2]; 70° C.): 99.32%
- Chiral (%) ([2]; 70° C.): 99.13%
- Physical stability ([2]; 70° C.): Stable
- Chemical (%) ([2]; 70° C./80% RH): 99.43%
- Chiral (%) ([2]; 70° C./80% RH): 98.91%
- Physical stability ([2]; 70° C./80% RH): Stable
- Chemical (%) ([2]; Ambient): 99.08%
- Chiral (%) ([2]; Ambient): 99.26%
